Results from US4002754A, “Substituted piperazinyliminorifamycins” (Gruppo Lepetit S.p.A., priority 1975, dated 1977).
Values after ≈ are worked out from the molar mass of the structure shown.

Experiments:
[1] = system: Mycobacterium tuberculosis H37 Rv; experiment: minimal inhibitory concentration (antimicrobial activity); type: cell-based; conditions: H37RV, read-out: minimal inhibitory concentration
Source text: (§1) The unexpected biological characteristics of the novel rifamycins have been evidenced by considering the survival time after a daily administration of rifampicin and a once-a-week administration of the same dose level per os of 3-[4-(2-propenyl)-1-piperazinyl]iminorifamycin SV (hereinafter referred to as "propenyl derivative") to mice infected with Mycobacterium tuberculosis H37 Rv. […] For instance, the value of the minimal inhibitory concentration of propenyl derivative against Mycobacterium tuberculosis H37 Rv is 0.02 μg/ml while that of rifampicin is 0.5 μg/ml.

[2] = system: Mycobacterium tuberculosis H37 Rv; experiment: survival time of mice infected with Mycobacterium tuberculosis H37 Rv; type: in vivo; conditions: once-a-week per os vs daily rifampicin at same dose level; total amount about 1/6
Source text: as §1

in vivo = conditions: mouse
Staphylococcus aureus = experiment: experimental Staphylococcus aureus infection in mice; type: in vivo; conditions: po
Method: In fact, propynyl derivative (i.e. 3-[4-(2-propynyl)-1-piperazinyl]iminomethylrifamycin SV) in representative experiments has shown an ED50 value of 0.20 mg/kg p.o. The toxicity is very low, the LD 50 value in mice being higher than 2000 mg/kg p.o. The new compounds are suitably administered in usual pharmaceutical combinations with conventional carriers.

toxicity (LD50) in mice = conditions: in words

| Structure (SMILES) | MIC [1] [µg/mL] | survival time [2] | LD50 (in vivo; ip) [mg/kg] | LD50 (in vivo; po) [mg/kg] | ED50 (Staphylococcus aureus) [mg/kg] | toxicity (toxicity (LD50) in mice) |
| --- | --- | --- | --- | --- | --- | --- |
| C=CCN1CCN(N=Cc2c3c(O)c4c(O)c(C)c5c(c4c2O)C(=O)C(C)(OC=CC(OC)C(C)C(OC(C)=O)C(C)C(O)C(C)C(O)C(C)C=CC=C(C)C(=O)N3)O5)CC1 (stereo not shown) [propenyl derivative, 3-[4-(2-Propenyl)-1-piperazinyl]iminomethylrifamycin SV] | 0.02 (≈ 0.0236 µM) | about the same survival time | ~700 | ~1500 |  |  |
| C#CCN1CCN(N=Cc2c3c(O)c4c(O)c(C)c5c(c4c2O)C(=O)C(C)(OC=CC(OC)C(C)C(OC(C)=O)C(C)C(O)C(C)C(O)C(C)C=CC=C(C)C(=O)N3)O5)CC1 (stereo not shown) [propynyl derivative, 3-[4-(2-Propynyl)-1-piperazinyl]iminomethylrifamycin SV] |  |  |  | > 2000 | 0.2 | very low |
